# Test results reported in patent US20080190575A1, “Lignocellulosic Composite Material and Method for Preparing the Same” (priority 2004, published 2008).
# Test: Dissolvability of insecticide in solvent
# Format: physicochemical
# Source text: It has been determined that certain polar solvents are capable of dissolving at least 10 grams of the insecticide per liter of solvent. For example, it has also been determined that water is not a sufficient polar solvent for certain insecticides, such as fipronil, because it is capable of only dissolving 2.4 milligrams per liter of water. Generally, these polar solvents that are capable of dissolving at least 10 grams of the insecticide per liter are selected from at least one of an alcohol, a ketone, and an ester. More preferably, the polar solvent is selected from the group of octyl alcohol, isopropyl alcohol, methyl alcohol, acetone, carpryl alcohol, propylene carbonate, gamma-butyrolactone, 3-pentanone, 1-methyl-2-pyrrolidinone, and combinations thereof.
# In Examples 1 and 2, the lignocellulosic composite material was formed having a thickness of 0.437 inches with a density of about 39 lb/ft^3. […] The fipronil was present in an amount of about 150 PPM based on the dry weight of the lignocellulosic particles. In Example 2, 0.28 grams of fipronil were dissolved in 1.00 grams of the polar solvent to form the insecticide solution. The fipronil was present in an amount of about 30 PPM based on the dry weight of the lignocellulosic particles. The polar solvent was 1-methyl-2-pyrrolidinone (NMP). NMP is capable of dissolving about 289 grams of fipronil per liter of NMP.
# In Examples 3 and 4, the lignocellulosic composite material was formed having a thickness of 0.719 inches with a density of about 40 lb/ft^3. In Example 3, 1.15 grams of fipronil were dissolved in 5 grams of the polar solvent to form the insecticide solution. The fipronil was present in an amount of about 50 PPM based on the dry weight of the lignocellulosic particles. […] The fipronil was present in an amount of about 100 PPM based on the dry weight of the lignocellulosic particles. The polar solvent in Examples 3 and 4 was 3-pentanone, which is capable of dissolving about 326 grams of fipronil per liter of 3-pentanone.
structure (smiles),measurement,setting,value
"N#Cc1nn(-c2c(Cl)cc(C(F)(F)F)cc2Cl)c(N)c1[S+]([O-])C(F)(F)F (stereo not drawn) [fipronil, 5-amino-1-(2,6-dichloro-4-(trifluoromethyl)phenyl)-4-((trifluoromethyl)sulfinyl)-1H-pyrazole-3-carbonitrile]",amount dissolved per liter of NMP,solvent 1-methyl-2-pyrrolidinone (NMP),about 289 grams per liter
same,amount dissolved per liter of 3-pentanone,solvent 3-pentanone,about 326 grams per liter
same,amount dissolved per liter of water,solvent water,2.4 milligrams per liter
